Data as given in paper PMC9499365, “Stereoselective Synthesis and Application of Gibberellic Acid-Derived Aminodiols” (International Journal of Molecular Sciences, 2022).

Assays:
[1] = tested on: HeLa cells (cervical cancer); assay: MTT antiproliferative assay, HeLa; type: cell-based, human; details: 72 h; for inhibition at 10 µM / inhibition at 30 µM: read-out: Growth inhibition (%) ± SEM
Procedure: (§1) The in vitro antiproliferative activities of the synthesized aminodiols 4–38 against a panel of different human cancer cell lines of gynecological origin, including cervical (SiHA and HeLa), breast (MCF7 and MDA-MB-231), and ovary (A2780) cancers were assayed by the MTT method. […] Cisplatin, a clinically applied anticancer agent, was used as a reference compound and the results are summarized in Figure 3 and Table S1 in Supporting Information. […] On the other hand, none of the prepared azole derivatives exerted relevant activity.
(§2) The growth-inhibitory effects of the gibberellic acid-based aminodiol derivatives were determined by a standard MTT (3-(4,5-dimethylthiazol-2-yl)-2,5-diphenyltetrazolium bromide) assay on a panel containing five cell lines, including Hela and Siha (cervical cancers); MDA-MB-231 and MCF-7 (breast cancers); and A2780 ovarian cancer cells. The most promising agents were additionally tested against NIH/3T3 mouse embryo fibroblast cells. All cell lines were purchased from the European Collection of Cell Cultures (Salisbury, UK) except SiHa, which was obtained from the American Tissue Culture Collection (Manassas, VA, USA). The cells were maintained in minimal essential medium supplemented with 10% fetal bovine serum, 1% non-essential amino acids, and 1% penicillin-streptomycin at 37 °C in a humidified atmosphere containing 5% CO2. All media and supplements were obtained from Lonza Group Ltd., (Basel, Switzerland). Cancer cells were seeded into 96-well plates (5000 cells/well), after an overnight incubation the test compound was added in 2 different concentrations (10 µM and 30 µM) and incubated for another 72 h under cell-culturing conditions. Then, 20 μL of 5 mg/mL MTT solution was added to each well and incubated for a further 4 h. The medium was removed, and the precipitated formazan crystals were dissolved in DMSO during 60 min of shaking at 37 °C. As the final step, the absorbance was measured at 545 nm by using a microplate reader (SPECTROStar Nano, BMG Labtech, Offenburg, Germany). Untreated cells were included as controls. […] These agents were additionally tested against NIH/3T3 fibroblasts to obtain results about their cancer selectivity. Two independent experiments were performed with five wells for each condition. Cisplatin (Ebewe GmbH, Unterach, Austria), a clinically used anticancer agent, was used as a positive control. Calculations were performed utilizing the GraphPad Prism 5.01 software (GraphPad Software Inc., San Diego, CA, USA).

[2] = tested on: SiHa cells (cervical cancer); assay: MTT antiproliferative assay, SiHa; type: cell-based, human; details: 72 h; for inhibition at 10 µM / inhibition at 30 µM: read-out: Growth inhibition (%) ± SEM
Procedure: as §1, §2

[3] = tested on: MDA-MB-231 cells (breast cancer); assay: MTT antiproliferative assay, MDA-MB-231; type: cell-based, human; details: for Growth inhibition (%) ± SEM / inhibition at 10 µM / inhibition at 30 µM: 72 h; for IC50: MDA-MB-231, 72 h; for inhibition at 10 µM / inhibition at 30 µM: read-out: Growth inhibition (%) ± SEM
Procedure: as §1, §2

[4] = tested on: A2780 ovarian cancer cells; assay: MTT antiproliferative assay, A2780; type: cell-based, human; details: for Growth inhibition (%) ± SEM / inhibition at 10 µM / inhibition at 30 µM: 72 h; for IC50: A2780, 72 h; for inhibition at 10 µM / inhibition at 30 µM: read-out: Growth inhibition (%) ± SEM
Procedure: as §1, §2

[5] = tested on: NIH/3T3 mouse embryo fibroblast cells; assay: MTT assay on non-cancerous fibroblasts (cancer selectivity); type: cell-based; details: for Growth inhibition (%) ± SEM / inhibition at 10 µM / inhibition at 30 µM: 72 h; for IC50: NIH/3T3, 72 h; for cancer selectivity (cancer cells vs NIH/3T3 fibroblasts), words: comparison of IC50 on fibroblasts and malignant cell lines; for inhibition at 10 µM / inhibition at 30 µM: read-out: Growth inhibition (%) ± SEM
Procedure: as §1, §2

[6] = DPPH free radical scavenging assay; details: concentration range 3–100 µM
Procedure: As a consequence, in vitro antioxidant activities of selected N-aliphatic- and N-aryl-substituted aminodiols were determined by 1,1-diphenyl-2-picrylhydrazyl (DPPH) assay.
The antioxidant effects of the aminodiol derivatives were tested on 1,1-diphenyl-2-picrylhydrazyl (DPPH) radicals according to Brand-Williams (1995) [55] and Sánchez-Moreno (2002) [56], with some modifications. […] After a 30 min incubation period at room temperature (25 °C) the absorbances were measured at 517 nm by a microplate reader (SPECTROStar Nano, BMG Labtech, Offenburg, Germany). Trolox (3,4-Dihydro-6-hydroxy-2,5,7,8-tetramethyl-2H-1-benzopyran-2-carboxylic acid) was used as a positive control. All measurements were performed in duplicate with 5 parallels.

[7] = tested on: panel of human cancer cell lines; assay: MTT antiproliferative assay, panel of human cancer cell lines (summary statements); type: cell-based; details: range over the cancer cell lines, read-out: calculated IC50 value on the malignant cell lines
Procedure: as §1
The growth-inhibitory effects of the gibberellic acid-based aminodiol derivatives were determined by a standard MTT (3-(4,5-dimethylthiazol-2-yl)-2,5-diphenyltetrazolium bromide) assay on a panel containing five cell lines, including Hela and Siha (cervical cancers); MDA-MB-231 and MCF-7 (breast cancers); and A2780 ovarian cancer cells. The most promising agents were additionally tested against NIH/3T3 mouse embryo fibroblast cells. All cell lines were purchased from the European Collection of Cell Cultures (Salisbury, UK) except SiHa, which was obtained from the American Tissue Culture Collection (Manassas, VA, USA). […] As the final step, the absorbance was measured at 545 nm by using a microplate reader (SPECTROStar Nano, BMG Labtech, Offenburg, Germany). […]

[8] = Homo sapiens, MDA-MB-231, 10 μM
[9] = Homo sapiens, MDA-MB-231, 30 μM
[10] = Mus musculus, NIH3T3, NIH/3T3, 10 μM
[11] = Mus musculus, NIH3T3, NIH/3T3, 30 μM

Compound | IC50 ([1]; Homo sapiens) | IC50 ([2]; Homo sapiens) | IC50 ([3]; Homo sapiens) | IC50 ([4]; Homo sapiens) | melting point | cancer selectivity (cancer cells vs NIH/3T3 fibroblasts), words [5] | DPPH scavenging activity [6] | inhibition at 10 µM ([1]; Homo sapiens, 10 μM) | inhibition at 30 µM ([1]; Homo sapiens, 30 μM) | inhibition at 10 µM ([2]; Homo sapiens, 10 μM) | inhibition at 30 µM ([2]; Homo sapiens, 30 μM) | inhibition at 10 µM [3, 8] | inhibition at 30 µM [3, 9] | inhibition at 10 µM ([4]; Homo sapiens, A2780, 10 μM) | inhibition at 30 µM ([4]; Homo sapiens, A2780, 30 μM) | inhibition at 10 µM [5, 10] | inhibition at 30 µM [5, 11] | IC50 ([5]; Mus musculus, NIH3T3) | also measured
CCOC(=O)[C@H]1c2c(C)cccc2[C@H]2CC[C@]3(O)C[C@@]21C[C@]3(O)CN[C@@H](C)c1ccc2ccccc2c1 [Compound 12] |  |  |  |  |  | inhibited the growth of cancer cells and fibroblasts in the same concentration range | None of the six molecules elicited considerable activity |  |  |  |  |  |  |  |  |  |  |  | Growth inhibition (%) ± SEM ([1]; 10 μM): 97.69 ± 0.28%; Growth inhibition (%) ± SEM ([1]; 30 μM): 97.62 ± 0.55%; IC50 [1]: 4.14 ± 0.38 µM; Growth inhibition (%) ± SEM ([2]; 10 μM): 97.41 ± 0.15%; Growth inhibition (%) ± SEM ([2]; 30 μM): 97.06 ± 0.20%; IC50 [2]: 4.17 ± 0.32 µM; Growth inhibition (%) ± SEM ([3]; MDA-MB-231, 10 μM): 95.00 ± 0.69%; Growth inhibition (%) ± SEM ([3]; MDA-MB-231, 30 μM): 93.72 ± 0.88%; IC50 [3]: 7.19 ± 1.48 µM; Growth inhibition (%) ± SEM ([4]; A2780, 10 μM): 96.29 ± 0.59%; Growth inhibition (%) ± SEM ([4]; A2780, 30 μM): 96.28 ± 0.82%; IC50 [4]: 5.45 ± 0.31 µM; Growth inhibition (%) ± SEM ([5]; NIH/3T3, 10 μM): 90.43 ± 0.15%; Growth inhibition (%) ± SEM ([5]; NIH/3T3, 30 μM): 91.03 ± 0.05%; IC50 [5]: 4.57 ± 0.23 µM
CCOC(=O)[C@H]1c2c(C)cccc2[C@H]2CC[C@]3(O)C[C@@]21C[C@]3(O)CN[C@@H](C)c1cccc2ccccc12 [Compound 13, Ethyl (4bS,7S,8S,9aR,10R)-7,8-dihydroxy-1-methyl-8-((((S)-1-(naphthalen-1-yl)ethyl)amino)methyl)-4b,6,7,8,9,10-hexahydro-5H-7,9a-methanobenzo[a]azulene-10-carboxylate] | 4.38 ± 0.08 µM | 4.69 ± 0.17 µM | 7.49 ± 1.26 µM | 5.3 ± 0.41 µM |  | modest cancer selectivity | None of the six molecules elicited considerable activity | 97.16 ± 0.49% | 96.87 ± 0.47% | 96.05 ± 0.46% | 96.74 ± 0.27% | 94.86 ± 0.83% | 96 ± 0.92% | 91.2 ± 1.96% | 96.7 ± 1.17% | 40.5 ± 0.86% | 88.1 ± 0.16% | 10.9 µM | IC50 [7]: 4.38 to 7.49 µM
CCOC(=O)[C@H]1c2c(C)cccc2C2CC[C@]3(O)C[C@@]21C[C@]3(O)CN[C@H](C)c1cccc2ccccc12 (stereo partly drawn) [Compound 14, Ethyl (7S,8S,9aR,10R)-7,8-dihydroxy-1-methyl-8-((((R)-1-(naphthalen-1-yl)ethyl)amino)methyl)-4b,6,7,8,9,10-hexahydro-5H-7,9a-methanobenzo[a]azulene-10-carboxylate] | 4.66 ± 0.21 µM | 5.25 ± 0.86 µM | 8.04 ± 0.61 µM | 5.15 ± 0.28 µM |  | inhibited the growth of cancer cells and fibroblasts in the same concentration range | None of the six molecules elicited considerable activity | 98.08 ± 0.19% | 97.4 ± 0.34% | 96.3 ± 2.13% | 97.84 ± 0.42% | 96.57 ± 0.37% | 96.77 ± 0.16% | 96.53 ± 0.73% | 95.9 ± 1.06% | 88.6 ± 0.97% | 88.7 ± 0.98% | 5.02 ± 0.26 µM | 

Continued, in another order:

IC50 ([1]; Homo sapiens) | IC50 ([2]; Homo sapiens) | IC50 ([3]; Homo sapiens) | IC50 ([4]; Homo sapiens) | melting point | Compound | cancer selectivity (cancer cells vs NIH/3T3 fibroblasts), words [5] | DPPH scavenging activity [6] | inhibition at 10 µM ([1]; Homo sapiens, 10 μM) | inhibition at 30 µM ([1]; Homo sapiens, 30 μM) | inhibition at 10 µM ([2]; Homo sapiens, 10 μM) | inhibition at 30 µM ([2]; Homo sapiens, 30 μM) | inhibition at 10 µM [3, 8] | inhibition at 30 µM [3, 9] | inhibition at 10 µM ([4]; Homo sapiens, A2780, 10 μM) | inhibition at 30 µM ([4]; Homo sapiens, A2780, 30 μM) | inhibition at 10 µM [5, 10] | inhibition at 30 µM [5, 11] | IC50 ([5]; Mus musculus, NIH3T3) | also measured
 |  |  |  | 94 to 95 °C | CCOC(=O)[C@H]1c2c(C)cccc2[C@H]2CC[C@]3(O)C[C@@]21C[C@]3(O)CN(C)Cc1ccccc1 [Compound 16, Ethyl (4bS,7S,8S,9aR,10R)-8-((benzyl(methyl)amino)methyl)-7,8-dihydroxy-1-methyl-4b,6,7,8,9,10-hexahydro-5H-7,9a-methanobenzo[a]azulene-10-carboxylate] |  | None of the six molecules elicited considerable activity | < 20% | 36 ± 2.89% | < 20% | 23 ± 0.39% | < 20% | 25 ± 0.99% | < 20% | 21.6 ± 0.85% |  |  |  | 
 |  |  |  | 92 to 94 °C | CCOC(=O)[C@H]1c2c(C)cccc2[C@H]2CC[C@]3(O)C[C@@]21C[C@]3(O)CN [Compound 25, Ethyl (4bS,7S,8S,9aR,10R)-8-(aminomethyl)-7,8-dihydroxy-1-methyl-4b,6,7,8,9,10-hexahydro-5H-7,9a-methanobenzo[a]azulene-10-carboxylate] |  | None of the six molecules elicited considerable activity | < 20% | < 20% | < 20% | < 20% | < 20% | < 20% | < 20% | < 20% |  |  |  | 
